Measurements from patent publication US20090047221A1 (NIPRI LIMITED, priority 2004, published 2009).

Tested on: cancer cell line MDA-MB-468
Experiment: Combination index with known cancer drugs against proliferation (Calcusyn software)
Assay type: cell-based
From the text: A combination index of less than 0.1 indicates very strong synergy; a combination index of 0.1 to 0.3 indicates strong synergism; a combination index of 0.3 to 0.7 indicates synergism; a combination index of 0.7 to 0.85 indicates moderate synergism; a combination index of 0.85 to 0.9 indicates slight synergism and a combination index of 0.9 to 1.1 indicates only very slight synergism, said combination being close to merely additive.
The combination index may be calculated using calcusyn software.
Evidence of synergy was determined by calculation of the combination index using Calcusyn software.
The MTT assay was used initially to determine the anti-proliferative activity of the test compounds. In the MTT assay a yellow thiazolyl blue tetrazolium bromide salt (MTT) is reduced, in metabolically active cells, to form insoluble purple formazan crystals which are solubilised by the addition of dimethyl sulphoxide (DMSO). Absorbance readings can then be determined spectrophotometrically and a relationship established between control untreated cells and drug treated cells enabling the quantification of anti-proliferative changes as a result of drug treatment (Mosmann, 1983).
Wells containing medium only were used as blanks. Following the attachment period, cells were treated with appropriate drug concentrations (20 μl added per well). 40 mg/ml stock drug solutions, in DMSO, were stored at −20° C. and on the day of drug treatment working solutions of 4 mg/ml were prepared in medium which was further diluted to achieve final drug dilution volumes of 20 μl. Initial screening was determined over a concentration range of 1-200 μg/ml. For potent compounds the assay was repeated over a narrower concentration range to determine accurate IC50 values. Cells were exposed to drug for 96 h continual exposure (37° C., 5% CO2). Following the 96 h incubation, 50 μl MTT solution (1 g MTT/500 ml PBS) was added per well and the plates were further incubated for 4 h (37° C., 5% CO2). After incubation the MTT and medium was removed from the wells and 100 μl DMSO added per well. Plates were agitated on an orbital mixer platform (Stuart Scientific) for 10 minutes. Absorbance was measured at 570 nm on a Biotrak II (Amersham Bioscience) plate reader. IC50 values were calculated comparing control and drug treated cells.

CC(C)CC(NC(=O)c1ccc2c(c1O)C(=O)OC(C)C2)C(=O)OC(C)(C)C (mixture of isomers) [ALM-55, Leucine Tert-Butyl Ester Amide]
Combination Index (Cisplatin 1 × 10^−2 mol/L, ALM compound 0.1 μg/ml): 0.003
Combination Index (Cisplatin 1 × 10^−2 mol/L, ALM compound 0.5 μg/ml): 0.009
Combination Index (Cisplatin 1 × 10^−2 mol/L, ALM compound 1.0 μg/ml): 0.023
Combination Index (Cisplatin 1 × 10^−2 mol/L, ALM compound 5.0 μg/ml): 0.11
Combination Index (Cisplatin 1 × 10^−3 mol/L, ALM compound 0.1 μg/ml): 0.031
Combination Index (Cisplatin 1 × 10^−3 mol/L, ALM compound 0.5 μg/ml): No
Combination Index (Cisplatin 1 × 10^−3 mol/L, ALM compound 1.0 μg/ml): No
Combination Index (Cisplatin 1 × 10^−3 mol/L, ALM compound 5.0 μg/ml): No
Combination Index (Cisplatin 1 × 10^−4 mol/L, ALM compound 0.1 μg/ml): No
Combination Index (Cisplatin 1 × 10^−4 mol/L, ALM compound 0.5 μg/ml): No
Combination Index (Cisplatin 1 × 10^−4 mol/L, ALM compound 1.0 μg/ml): No
Combination Index (Cisplatin 1 × 10^−4 mol/L, ALM compound 5.0 μg/ml): No
Combination Index (Cisplatin 1 × 10^−5 mol/L, ALM compound 0.1 μg/ml): No
Combination Index (Cisplatin 1 × 10^−5 mol/L, ALM compound 0.5 μg/ml): No
Combination Index (Cisplatin 1 × 10^−5 mol/L, ALM compound 1.0 μg/ml): No
Combination Index (Cisplatin 1 × 10^−5 mol/L, ALM compound 5.0 μg/ml): No
Combination Index (Cisplatin 1 × 10^−6 mol/L, ALM compound 0.1 μg/ml): No
Combination Index (Cisplatin 1 × 10^−6 mol/L, ALM compound 0.5 μg/ml): No
Combination Index (Cisplatin 1 × 10^−6 mol/L, ALM compound 1.0 μg/ml): No
Combination Index (Cisplatin 1 × 10^−6 mol/L, ALM compound 5.0 μg/ml): No
Combination Index (Cisplatin 1 × 10^−7 mol/L, ALM compound 0.1 μg/ml): 0.431
Combination Index (Cisplatin 1 × 10^−7 mol/L, ALM compound 0.5 μg/ml): No
Combination Index (Cisplatin 1 × 10^−7 mol/L, ALM compound 1.0 μg/ml): No
Combination Index (Cisplatin 1 × 10^−7 mol/L, ALM compound 5.0 μg/ml): No
Combination Index (Cisplatin 1 × 10^−8 mol/L, ALM compound 0.1 μg/ml): 0.155
Combination Index (Cisplatin 1 × 10^−8 mol/L, ALM compound 0.5 μg/ml): No
Combination Index (Cisplatin 1 × 10^−8 mol/L, ALM compound 1.0 μg/ml): No
Combination Index (Cisplatin 1 × 10^−8 mol/L, ALM compound 5.0 μg/ml): No
Combination Index (Cisplatin 1 × 10^−9 mol/L, ALM compound 0.1 μg/ml): 0.093
Combination Index (Cisplatin 1 × 10^−9 mol/L, ALM compound 0.5 μg/ml): 0.531
Combination Index (Cisplatin 1 × 10^−9 mol/L, ALM compound 1.0 μg/ml): No
Combination Index (Cisplatin 1 × 10^−9 mol/L, ALM compound 5.0 μg/ml): No
Combination Index (Doxorubicin 1 × 10^−4 mol/L, ALM compound 0.1 μg/ml): No
Combination Index (Doxorubicin 1 × 10^−4 mol/L, ALM compound 0.5 μg/ml): No
Combination Index (Doxorubicin 1 × 10^−4 mol/L, ALM compound 1.0 μg/ml): No
Combination Index (Doxorubicin 1 × 10^−4 mol/L, ALM compound 5.0 μg/ml): No
Combination Index (Doxorubicin 1 × 10^−5 mol/L, ALM compound 0.1 μg/ml): 0.284
Combination Index (Doxorubicin 1 × 10^−5 mol/L, ALM compound 0.5 μg/ml): No
Combination Index (Doxorubicin 1 × 10^−5 mol/L, ALM compound 1.0 μg/ml): 0.344
Combination Index (Doxorubicin 1 × 10^−5 mol/L, ALM compound 5.0 μg/ml): 0.969
Combination Index (Etoposide 1 × 10^−4 mol/L, ALM compound 0.1 μg/ml): 0.312
Combination Index (Etoposide 1 × 10^−4 mol/L, ALM compound 0.5 μg/ml): 0.142
Combination Index (Etoposide 1 × 10^−4 mol/L, ALM compound 1.0 μg/ml): 0.473
Combination Index (Etoposide 1 × 10^−4 mol/L, ALM compound 5.0 μg/ml): 0.335
Combination Index (Etoposide 1 × 10^−5 mol/L, ALM compound 0.1 μg/ml): No
Combination Index (Etoposide 1 × 10^−5 mol/L, ALM compound 0.5 μg/ml): 1.136
Combination Index (Etoposide 1 × 10^−5 mol/L, ALM compound 1.0 μg/ml): No
Combination Index (Etoposide 1 × 10^−5 mol/L, ALM compound 5.0 μg/ml): No
Combination Index (Etoposide 1 × 10^−6 mol/L, ALM compound 0.1 μg/ml): No
Combination Index (Etoposide 1 × 10^−6 mol/L, ALM compound 0.5 μg/ml): No
Combination Index (Etoposide 1 × 10^−6 mol/L, ALM compound 1.0 μg/ml): No
Combination Index (Etoposide 1 × 10^−6 mol/L, ALM compound 5.0 μg/ml): No
Combination Index (Etoposide 1 × 10^−7 mol/L, ALM compound 0.1 μg/ml): No
Combination Index (Etoposide 1 × 10^−7 mol/L, ALM compound 0.5 μg/ml): No
Combination Index (Etoposide 1 × 10^−7 mol/L, ALM compound 1.0 μg/ml): No
Combination Index (Etoposide 1 × 10^−7 mol/L, ALM compound 5.0 μg/ml): No
Combination Index (Etoposide 1 × 10^−8 mol/L, ALM compound 0.1 μg/ml): 0.414
Combination Index (Etoposide 1 × 10^−8 mol/L, ALM compound 0.5 μg/ml): 0.910
Combination Index (Etoposide 1 × 10^−8 mol/L, ALM compound 1.0 μg/ml): No
Combination Index (Etoposide 1 × 10^−8 mol/L, ALM compound 5.0 μg/ml): No
Combination Index (Etoposide 1 × 10^−9 mol/L, ALM compound 0.1 μg/ml): 0.318
Combination Index (Etoposide 1 × 10^−9 mol/L, ALM compound 0.5 μg/ml): 0.829
Combination Index (Etoposide 1 × 10^−9 mol/L, ALM compound 1.0 μg/ml): No
Combination Index (Etoposide 1 × 10^−9 mol/L, ALM compound 5.0 μg/ml): No
Combination Index (Etoposide 1 × 10^−10 mol/L, ALM compound 0.1 μg/ml): 0.267
Combination Index (Etoposide 1 × 10^−10 mol/L, ALM compound 0.5 μg/ml): 0.494
Combination Index (Etoposide 1 × 10^−10 mol/L, ALM compound 1.0 μg/ml): No
Combination Index (Etoposide 1 × 10^−10 mol/L, ALM compound 5.0 μg/ml): No
Combination Index (Irinotecan 1 × 10^−3 mol/L, ALM compound 0.1 μg/ml): 1.133
Combination Index (Irinotecan 1 × 10^−3 mol/L, ALM compound 0.5 μg/ml): 0.604
Combination Index (Irinotecan 1 × 10^−3 mol/L, ALM compound 1.0 μg/ml): 0.531
Combination Index (Irinotecan 1 × 10^−3 mol/L, ALM compound 5.0 μg/ml): 0.611
Combination Index (Irinotecan 1 × 10^−4 mol/L, ALM compound 0.1 μg/ml): 0.205
Combination Index (Irinotecan 1 × 10^−4 mol/L, ALM compound 0.5 μg/ml): 0.136
Combination Index (Irinotecan 1 × 10^−4 mol/L, ALM compound 1.0 μg/ml): 0.053
Combination Index (Irinotecan 1 × 10^−4 mol/L, ALM compound 5.0 μg/ml): 0.128
Combination Index (Irinotecan 1 × 10^−5 mol/L, ALM compound 0.1 μg/ml): No
Combination Index (Irinotecan 1 × 10^−5 mol/L, ALM compound 0.5 μg/ml): 0.682
Combination Index (Irinotecan 1 × 10^−5 mol/L, ALM compound 1.0 μg/ml): No
Combination Index (Irinotecan 1 × 10^−5 mol/L, ALM compound 5.0 μg/ml): No
Combination Index (Irinotecan 1 × 10^−6 mol/L, ALM compound 0.1 μg/ml): No
Combination Index (Irinotecan 1 × 10^−6 mol/L, ALM compound 0.5 μg/ml): No
Combination Index (Irinotecan 1 × 10^−6 mol/L, ALM compound 1.0 μg/ml): No
Combination Index (Irinotecan 1 × 10^−6 mol/L, ALM compound 5.0 μg/ml): No
Combination Index (Irinotecan 1 × 10^−7 mol/L, ALM compound 0.1 μg/ml): No
Combination Index (Irinotecan 1 × 10^−7 mol/L, ALM compound 0.5 μg/ml): No
Combination Index (Irinotecan 1 × 10^−7 mol/L, ALM compound 1.0 μg/ml): No
Combination Index (Irinotecan 1 × 10^−7 mol/L, ALM compound 5.0 μg/ml): No
Combination Index (Irinotecan 1 × 10^−8 mol/L, ALM compound 0.1 μg/ml): No
Combination Index (Irinotecan 1 × 10^−8 mol/L, ALM compound 0.5 μg/ml): 0.500
Combination Index (Irinotecan 1 × 10^−8 mol/L, ALM compound 1.0 μg/ml): No
Combination Index (Irinotecan 1 × 10^−8 mol/L, ALM compound 5.0 μg/ml): No
Combination Index (Irinotecan 1 × 10^−9 mol/L, ALM compound 0.1 μg/ml): No
Combination Index (Irinotecan 1 × 10^−9 mol/L, ALM compound 0.5 μg/ml): No
Combination Index (Irinotecan 1 × 10^−9 mol/L, ALM compound 1.0 μg/ml): No
Combination Index (Irinotecan 1 × 10^−9 mol/L, ALM compound 5.0 μg/ml): No
Combination Index (Irinotecan 1 × 10^−10 mol/L, ALM compound 0.1 μg/ml): 0.061
Combination Index (Irinotecan 1 × 10^−10 mol/L, ALM compound 0.5 μg/ml): No
Combination Index (Irinotecan 1 × 10^−10 mol/L, ALM compound 1.0 μg/ml): No
Combination Index (Irinotecan 1 × 10^−10 mol/L, ALM compound 5.0 μg/ml): No
